Experimental data from the OligoGym collection.
HELM strings list units from the 5' end as sugar, base in round brackets, then linkage (d deoxyribose, r ribose, m 2'-O-methyl, p phosphodiester). Strings are as the collection lists them; they lack the last nucleoside at the 3' end of the tested compound. [moe] = 2'-O-(2-methoxyethyl) (MOE); [sp] = phosphorothioate linkage; [m5C] = 5-methylcytosine

Target: GFAP
Assay: mouse, dose not given
Details: ASO

Row | Substance | 3 h FOB score [score 0-7]
1 | RNA1{[moe]([m5C])[sp].[moe](G)p.[moe](T)p.[moe]([m5C])p.[moe](A)p.[moe]([m5C])p.d(A)[sp].d(T)[sp].d(T)[sp].d([m5C])[sp].d(A)[sp].d([m5C])[sp].d(T)[sp].d(A)[sp].d(A)[sp].d(T)[sp].[moe](A)p.[moe](T)[sp].[moe](T)}$$$$ (last 3' nucleoside missing) | 0
2 | RNA1{[moe](A)[sp].[moe]([m5C])p.[moe](G)p.[moe](T)p.d([m5C])[sp].d(A)[sp].d([m5C])[sp].d(A)[sp].d(T)[sp].d(T)[sp].d([m5C])[sp].d(A)[sp].d([m5C])[sp].d(T)[sp].[moe](A)p.[moe](A)p.[moe](T)p.[moe](A)[sp].[moe](T)}$$$$ (last 3' nucleoside missing) | 0
3 | RNA1{[moe]([m5C])[sp].[moe]([m5C])p.[moe](A)p.[moe](G)p.[moe](T)[sp].d(G)[sp].d(T)[sp].d([m5C])[sp].d(T)[sp].d(T)[sp].d([m5C])[sp].d(A)[sp].d([m5C])[sp].d(T)[sp].d(T)[sp].[moe](T)p.[moe](G)p.[moe]([m5C])[sp].[moe](T)}$$$$ (last 3' nucleoside missing) | 0
4 | RNA1{[moe]([m5C])[sp].[moe](A)p.[moe](G)p.[moe]([m5C])p.[moe]([m5C])p.d(T)[sp].d(G)[sp].d(G)[sp].d(T)[sp].d(T)[sp].d(A)[sp].d(G)[sp].d([m5C])[sp].d([m5C])[sp].d(T)[sp].[moe](T)p.[moe](T)p.[moe]([m5C])[sp].[moe](T)}$$$$ (last 3' nucleoside missing) | 5
5 | RNA1{[moe](A)[sp].[moe](G)p.[moe](T)p.[moe](G)p.[moe](T)[sp].d(G)[sp].d(T)[sp].d(A)[sp].d(T)[sp].d(T)[sp].d(A)[sp].d(G)[sp].d(G)[sp].d(A)[sp].d(T)[sp].[moe]([m5C])p.[moe]([m5C])p.[moe]([m5C])[sp].[moe](A)}$$$$ (last 3' nucleoside missing) | 5
6 | RNA1{[moe]([m5C])[sp].[moe](T)p.[moe]([m5C])p.[moe](T)p.[moe](A)[sp].d(T)[sp].d([m5C])[sp].d([m5C])[sp].d([m5C])[sp].d(T)[sp].d([m5C])[sp].d([m5C])[sp].d([m5C])[sp].d(A)[sp].d(G)[sp].[moe]([m5C])p.[moe](A)p.[moe]([m5C])[sp].[moe]([m5C])}$$$$ (last 3' nucleoside missing) | 2
7 | RNA1{[moe]([m5C])[sp].[moe]([m5C])p.[moe]([m5C])p.[moe]([m5C])p.[moe]([m5C])[sp].d(T)[sp].d([m5C])[sp].d(T)[sp].d(A)[sp].d(T)[sp].d([m5C])[sp].d([m5C])[sp].d([m5C])[sp].d(T)[sp].d([m5C])[sp].[moe]([m5C])p.[moe]([m5C])p.[moe](A)[sp].[moe](G)}$$$$ (last 3' nucleoside missing) | 0
8 | RNA1{[moe](T)[sp].[moe](T)p.[moe](T)p.[moe](A)p.[moe](T)[sp].d(T)[sp].d(T)[sp].d(T)[sp].d(T)[sp].d([m5C])[sp].d([m5C])[sp].d(T)[sp].d([m5C])[sp].[moe](A)p.[moe](G)p.[moe]([m5C])[sp].[moe](G)}$$$$ (last 3' nucleoside missing) | 1
9 | RNA1{[moe](G)[sp].[moe](G)p.[moe]([m5C])p.[moe](A)p.d(G)[sp].d(T)[sp].d(A)[sp].d(T)[sp].d(T)[sp].d(A)[sp].d([m5C])[sp].d([m5C])[sp].d(T)[sp].d([m5C])[sp].[moe](T)p.[moe](A)p.[moe]([m5C])p.[moe](T)[sp].[moe](A)}$$$$ (last 3' nucleoside missing) | 3
10 | RNA1{[moe]([m5C])[sp].[moe](A)p.[moe](T)p.[moe](T)p.[moe](T)[sp].d(G)[sp].d(T)[sp].d([m5C])[sp].d(T)[sp].d(T)[sp].d(T)[sp].d(A)[sp].d(T)[sp].d(T)[sp].d(T)[sp].[moe](T)p.[moe](T)p.[moe]([m5C])[sp].[moe]([m5C])}$$$$ (last 3' nucleoside missing) | 0
11 | RNA1{[moe](T)[sp].[moe]([m5C])p.[moe](T)p.[moe](G)p.[moe]([m5C])p.d([m5C])[sp].d(A)[sp].d(T)[sp].d(T)[sp].d(T)[sp].d(A)[sp].d(T)[sp].d([m5C])[sp].d(T)[sp].d(G)[sp].[moe](T)p.[moe](G)p.[moe]([m5C])[sp].[moe](T)}$$$$ (last 3' nucleoside missing) | 1
12 | RNA1{[moe](G)[sp].[moe](A)p.[moe](G)p.[moe](A)p.[moe]([m5C])[sp].d(A)[sp].d(T)[sp].d(G)[sp].d([m5C])[sp].d(A)[sp].d(T)[sp].d(A)[sp].d(T)[sp].d([m5C])[sp].d(T)[sp].[moe](A)p.[moe](G)p.[moe](T)[sp].[moe](G)}$$$$ (last 3' nucleoside missing) | 6
13 | RNA1{[moe]([m5C])[sp].[moe](A)p.[moe]([m5C])p.[moe](G)p.[moe](T)p.[moe]([m5C])p.d(A)[sp].d([m5C])[sp].d(A)[sp].d(T)[sp].d(T)[sp].d([m5C])[sp].d(A)[sp].d([m5C])[sp].d(T)[sp].d(A)[sp].[moe](A)p.[moe](T)[sp].[moe](A)}$$$$ (last 3' nucleoside missing) | 0
14 | RNA1{[moe](A)[sp].[moe](A)p.[moe](G)p.[moe]([m5C])p.[moe](T)[sp].d([m5C])[sp].d(T)[sp].d(G)[sp].d(A)[sp].d(G)[sp].d([m5C])[sp].d(T)[sp].d(G)[sp].d(T)[sp].d(G)[sp].[moe](G)p.[moe](T)p.[moe](G)[sp].[moe](T)}$$$$ (last 3' nucleoside missing) | 4
15 | RNA1{[moe](G)[sp].[moe](A)p.[moe](G)p.[moe](A)p.[moe](T)[sp].d(A)[sp].d(T)[sp].d([m5C])[sp].d(T)[sp].d(T)[sp].d(G)[sp].d(T)[sp].d(G)[sp].[moe](A)p.[moe]([m5C])p.[moe]([m5C])[sp].[moe](T)}$$$$ (last 3' nucleoside missing) | 4
16 | RNA1{[moe](G)[sp].[moe]([m5C])p.[moe](T)p.[moe](T)p.[moe](T)p.[moe](T)p.d(G)[sp].d(A)[sp].d(G)[sp].d(A)[sp].d(T)[sp].d(A)[sp].d(T)[sp].d([m5C])[sp].d(T)[sp].d(T)[sp].[moe](G)p.[moe](T)[sp].[moe](G)}$$$$ (last 3' nucleoside missing) | 2
17 | RNA1{[moe](G)[sp].[moe](T)p.[moe](G)p.[moe](A)p.[moe](G)[sp].d(T)[sp].d(T)[sp].d(T)[sp].d([m5C])[sp].d(T)[sp].d(T)[sp].d(G)[sp].d(T)[sp].d(T)[sp].d(A)[sp].[moe](G)p.[moe](T)p.[moe](T)[sp].[moe](G)}$$$$ (last 3' nucleoside missing) | 7
18 | RNA1{[moe](A)[sp].[moe]([m5C])p.[moe](T)p.[moe](A)p.d(G)[sp].d(T)[sp].d([m5C])[sp].d(A)[sp].d(G)[sp].d([m5C])[sp].d([m5C])[sp].d(T)[sp].d(G)[sp].d(G)[sp].[moe](T)p.[moe](T)p.[moe](A)p.[moe](G)[sp].[moe]([m5C])}$$$$ (last 3' nucleoside missing) | 2
19 | RNA1{[moe](G)[sp].[moe](T)p.[moe](T)p.[moe](T)p.[moe]([m5C])[sp].d([m5C])[sp].d(T)[sp].d(T)[sp].d(T)[sp].d(T)[sp].d(A)[sp].d([m5C])[sp].d([m5C])[sp].d(A)[sp].d(A)[sp].[moe](G)p.[moe]([m5C])p.[moe](T)[sp].[moe](G)}$$$$ (last 3' nucleoside missing) | 4
20 | RNA1{[moe](G)[sp].[moe](T)p.[moe]([m5C])p.[moe](A)p.[moe]([m5C])p.d(A)[sp].d(T)[sp].d(T)[sp].d([m5C])[sp].d(A)[sp].d([m5C])[sp].d(T)[sp].d(A)[sp].d(A)[sp].d(T)[sp].[moe](A)p.[moe](T)p.[moe](T)[sp].[moe](T)}$$$$ (last 3' nucleoside missing) | 0
21 | RNA1{[moe](T)[sp].[moe](G)p.[moe](A)p.[moe](G)p.[moe](T)[sp].d([m5C])[sp].d(T)[sp].d([m5C])[sp].d(A)[sp].d(G)[sp].d(T)[sp].d(T)[sp].d(T)[sp].d(T)[sp].d([m5C])[sp].[moe]([m5C])p.[moe](T)p.[moe]([m5C])[sp].[moe]([m5C])}$$$$ (last 3' nucleoside missing) | 0
22 | RNA1{[moe](G)[sp].[moe](G)p.[moe](T)p.[moe]([m5C])p.[moe]([m5C])p.d(T)[sp].d(A)[sp].d(A)[sp].d(A)[sp].d(T)[sp].d(A)[sp].d(T)[sp].d(T)[sp].d([m5C])[sp].d(T)[sp].[moe](A)p.[moe](G)p.[moe](T)[sp].[moe]([m5C])}$$$$ (last 3' nucleoside missing) | 1
23 | RNA1{[moe](A)[sp].[moe](G)p.[moe](A)p.[moe](G)p.d(T)[sp].d(G)[sp].d(T)[sp].d(G)[sp].d(T)[sp].d(A)[sp].d(T)[sp].d(T)[sp].d(A)[sp].d(G)[sp].[moe](G)p.[moe](A)p.[moe](T)p.[moe]([m5C])[sp].[moe]([m5C])}$$$$ (last 3' nucleoside missing) | 5
24 | RNA1{[moe]([m5C])[sp].[moe](T)p.[moe](T)p.[moe](T)p.[moe](T)p.d(G)[sp].d(A)[sp].d(G)[sp].d(A)[sp].d(T)[sp].d(A)[sp].d(T)[sp].d([m5C])[sp].d(T)[sp].d(T)[sp].[moe](G)p.[moe](T)p.[moe](G)[sp].[moe](A)}$$$$ (last 3' nucleoside missing) | 0
25 | RNA1{[moe]([m5C])[sp].[moe](G)p.[moe]([m5C])p.[moe](A)p.[moe](G)[sp].d([m5C])[sp].d(A)[sp].d(T)[sp].d(T)[sp].d(T)[sp].d(G)[sp].d(T)[sp].d([m5C])[sp].d(T)[sp].d(T)[sp].[moe](T)p.[moe](A)p.[moe](T)[sp].[moe](T)}$$$$ (last 3' nucleoside missing) | 5
26 | RNA1{[moe](G)[sp].[moe](G)p.[moe](A)p.[moe](G)p.[moe](G)[sp].d(G)[sp].d([m5C])[sp].d(G)[sp].d(A)[sp].d(T)[sp].d(G)[sp].d(T)[sp].d(A)[sp].d(G)[sp].d(T)[sp].[moe](A)p.[moe](G)p.[moe](G)[sp].[moe](T)}$$$$ (last 3' nucleoside missing) | 1
